The source made the active and inactive calls. No rule for the calls is given here.
Assay: mitochondrial fusion inhibitors, confirmation, cell-based, chemical genetic, wild-type and mutant (AID 1361)
Conditions: Cell-based mitochondrial fusion phenotype, imaging
[1] = mutant cells, measured here: mutant cell line IC50

O=[N+]([O-])c1cccnc1N1CCC(c2cc(-c3ccc(Cl)cc3Cl)n[nH]2)CC1
IC50 (WT cells): 6.53 µM
IC50 [1]: > 25 µM

O=C(COC(=O)CCCOc1ccc(Cl)cc1Cl)Nc1cccc(Cl)c1
IC50 (WT cells): 24 µM (inactive)
IC50 [1]: 22.8 µM

Cc1ccc(S(=O)(=O)Nc2ccc(C(OC(=O)c3ccccc3[N+](=O)[O-])(C(F)(F)F)C(F)(F)F)cc2)cc1
IC50 (WT cells): 11 µM
IC50 [1]: > 25 µM

CC(C)(C)N/N=C1\CC(c2ccccc2)Oc2ccccc21 (configuration not stated)
IC50 (WT cells): 14.5 µM
IC50 [1]: > 25 µM

COc1cc(Nc2nc(-c3ccccc3)c3cc(C)ccc3n2)cc(OC)c1OC
IC50 (WT cells): 10.6 µM
IC50 [1]: > 25 µM

CCCOP(=O)(OCCC)C(Nc1ccc(C(C)C)cc1)c1ccc([N+](=O)[O-])cc1 (configuration not stated)
IC50 (WT cells): 13.1 µM
IC50 [1]: > 25 µM

N#CCCN(CCC#N)c1nnc(-c2ccccc2)s1
IC50 (WT cells): > 25 µM (inactive)
IC50 [1]: > 25 µM

CCSc1nnc(NC(=O)COc2ccc3ccccc3c2)s1
IC50 (WT cells): > 25 µM (inactive)
IC50 [1]: > 25 µM

Fc1ccccc1Nc1nc2c(s1)CCc1ccccc1-2
IC50 (WT cells): 17.7 µM
IC50 [1]: 19.1 µM

CC1(c2ccc([N+](=O)[O-])cc2)CC(C)(C)N(C(=O)c2ccccc2)c2ccccc21 (configuration not stated)
IC50 (WT cells): 1.71 µM
IC50 [1]: 4.04 µM

Cc1nn(Cc2ccccc2Cl)c(C)c1NC(=O)NC12CC3CC(CC(C3)C1)C2
IC50 (WT cells): > 25 µM (inactive)
IC50 [1]: > 25 µM

CC(C)c1ccc(NC(=O)c2sccc2-n2cccc2)cc1
IC50 (WT cells): > 25 µM (inactive)
IC50 [1]: > 25 µM

CC(C)(C)c1ccc(CNc2ccc([N+](=O)[O-])cn2)cc1
IC50 (WT cells): > 25 µM (inactive)
IC50 [1]: > 25 µM

Cc1cc(Oc2cnn(C(C)(C)C)c(=O)c2Cl)cc(C(C)C)c1
IC50 (WT cells): 16.9 µM
IC50 [1]: > 25 µM

N/C(Cc1ccccc1)=N\OC(=O)c1cccc2ccccc12
IC50 (WT cells): 14.8 µM (inactive)
IC50 [1]: 14.6 µM

CC(C)(C)Nc1nc(SCc2ccccc2)nc(N2CCOCC2)n1
IC50 (WT cells): 17.3 µM
IC50 [1]: > 25 µM

Cc1ccc(C)c(N2CCN(C(=O)Cc3cn(C)c4ccccc34)CC2)c1
IC50 (WT cells): 21.9 µM
IC50 [1]: > 25 µM

CCOC(=O)N1CCC(NC(=O)c2cc(-c3ccc(F)cc3)[nH]c2C)CC1
IC50 (WT cells): > 25 µM (inactive)
IC50 [1]: > 25 µM

Cc1oc(-c2ccccc2)nc1CN1C(=O)C(C)N=C(c2ccccc2F)c2cc(Cl)ccc21 (configuration not stated)
IC50 (WT cells): 12.4 µM
IC50 [1]: > 25 µM

CC(=O)C(N=Nc1ccccc1)(Sc1nnc(-c2ccccc2)n1-c1ccccc1)C(C)=O
IC50 (WT cells): 6.6 µM
IC50 [1]: > 25 µM

COc1ccc(-c2noc(CSc3nnc(Cc4ccccc4)n3-c3ccc(Cl)cc3)n2)cc1
IC50 (WT cells): 16.1 µM
IC50 [1]: > 25 µM

Cc1cc(NCCCn2ccnc2)n2ncc(-c3ccc(Cl)cc3)c2n1
IC50 (WT cells): 11.1 µM
IC50 [1]: 17.9 µM

O=C(NC(=S)NCCC1=CCCCC1)c1ccccc1Br
IC50 (WT cells): 20.9 µM
IC50 [1]: > 25 µM

CC(C)C1OC(c2cccc(NC(=O)c3cccs3)c2)OCC1(C)C (configuration not stated)
IC50 (WT cells): > 25 µM (inactive)
IC50 [1]: > 25 µM

C=CCn1c(C)c(C(C)=O)c(N2CCN(C(c3ccccc3)c3ccccc3)CC2)nc1=S
IC50 (WT cells): 13.3 µM
IC50 [1]: > 25 µM

Cc1ccc(/C=C/C(=O)N2CCC(Cc3ccccc3)CC2)cc1
IC50 (WT cells): 15.1 µM
IC50 [1]: > 25 µM

CCC(C)Nc1c([N+](=O)[O-])cc(C)cc1[N+](=O)[O-] (configuration not stated)
IC50 (WT cells): > 25 µM (inactive)
IC50 [1]: > 25 µM

CCOC(=O)c1sc(NC(=O)/C=C/c2cnn(CC)c2C)c(C(=O)OCC)c1C
IC50 (WT cells): > 25 µM (inactive)
IC50 [1]: > 25 µM

CCc1nnc(NC(=O)c2cccc(C(=O)Nc3nnc(CC)s3)n2)s1
IC50 (WT cells): 23.8 µM
IC50 [1]: > 25 µM

C=C(C)c1cccc(C(C)(C)NC(=O)Nc2ccc(Cl)cn2)c1
IC50 (WT cells): 12.8 µM
IC50 [1]: > 25 µM

CCOc1ccccc1NC(=O)C(OC(=O)c1ccc(O)cc1)c1ccccc1 (configuration not stated)
IC50 (WT cells): 9.83 µM
IC50 [1]: > 25 µM

Cc1ccc(NC(=S)N(Cc2cccc(Br)c2)CC2CCC(C(=O)O)CC2)cc1Cl (configuration not stated)
IC50 (WT cells): 21.8 µM
IC50 [1]: > 25 µM

CCOC(=O)C(C)c1nc2ccccc2[nH]c1=O (configuration not stated)
IC50 (WT cells): > 25 µM (inactive)
IC50 [1]: > 25 µM

O=C(NCc1ccccc1)c1ccc(C(=O)N(C2CCCCC2)C2CCCCC2)cc1
IC50 (WT cells): > 25 µM (inactive)
IC50 [1]: > 25 µM

COc1ccccc1/C=C\C=N\n1c(-c2ccc(Cl)cc2Cl)n[nH]c1=S
IC50 (WT cells): 9.01 µM
IC50 [1]: > 25 µM

COc1ccc(OC)c(C(=O)c2coc3ccc(OC)cc23)c1
IC50 (WT cells): > 25 µM (inactive)
IC50 [1]: > 25 µM

CC(C)(C)c1cc(/C=N/O)cc(C(C)(C)C)c1O
IC50 (WT cells): > 25 µM (inactive)
IC50 [1]: > 25 µM

N#CC1=C(N)C2=CCCC[C@H]2[C@H](c2ccc(Br)cc2)C1(C#N)C#N
IC50 (WT cells): 4.48 µM
IC50 [1]: 7.07 µM

S=c1[nH]nc(-c2ccc3ccccc3n2)n1-c1cc(Cl)cc(Cl)c1
IC50 (WT cells): 13.7 µM
IC50 [1]: > 25 µM

COc1cc(/C=N/n2cnnc2)ccc1OCc1ccccc1
IC50 (WT cells): > 25 µM (inactive)
IC50 [1]: > 25 µM

c1ccc(-c2nnc(CSc3nnc(-c4ccncc4)n3Cc3ccco3)o2)cc1
IC50 (WT cells): > 25 µM (inactive)
IC50 [1]: > 25 µM
